From PubChem BioAssay AID1918943 (Molecular Pharmacology Branch, DTP, NCI, 2023)
Several values for one entry are separate records, joined by “and”; a condition that tells them apart may be missing. Equal entries are not always repeated.

System: 855422-203-R-J1-PDC complex spheroid viability
Experiment: Anticancer human tumor 855422-203-R-J1-PDC patient-derived bladder carcinoma cell line growth inhibition
Conditions: for viability, T/C: stronger effect = lower value
How it was run: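 Multicellular complex spheroids of tumor cells with human endothelial cells (HUVEC) and mesenchymal stem cells; the LSD1 inhibitor iadademstat was combined with standard-of-care or investigational agents. Top concentration at or near clinical Cmax, half-log dilutions; final DMSO ≤0.25%.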

[1] = curve of first compound, second compound 0.1 µM
[2] = curve of first compound, second compound 0.316 µM
[3] = curve of first compound, second compound 1 µM
[4] = curve of first compound, second compound 3.16 µM
[5] = curve of first compound, second compound 10 µM
[6] = second compound 0.1 µM, first compound 0.000316 µM
[7] = second compound 0.1 µM, first compound 0.001 µM
[8] = second compound 0.1 µM, first compound 0.00316 µM
[9] = second compound 0.1 µM, first compound 0.01 µM
[10] = second compound 0.1 µM, first compound 0.0316 µM
[11] = second compound 0.1 µM, first compound 0.1 µM
[12] = second compound 0.316 µM, first compound 0.000316 µM
[13] = second compound 0.316 µM, first compound 0.001 µM
[14] = second compound 0.316 µM, first compound 0.00316 µM
[15] = second compound 0.316 µM, first compound 0.01 µM
[16] = second compound 0.316 µM, first compound 0.0316 µM
[17] = second compound 0.316 µM, first compound 0.1 µM
[18] = second compound 1 µM, first compound 0.000316 µM
[19] = second compound 1 µM, first compound 0.001 µM
[20] = second compound 1 µM, first compound 0.00316 µM
[21] = second compound 1 µM, first compound 0.01 µM
[22] = second compound 1 µM, first compound 0.0316 µM
[23] = second compound 1 µM, first compound 0.1 µM
[24] = second compound 3.16 µM, first compound 0.000316 µM
[25] = second compound 3.16 µM, first compound 0.001 µM
[26] = second compound 3.16 µM, first compound 0.00316 µM
[27] = second compound 3.16 µM, first compound 0.01 µM
[28] = second compound 3.16 µM, first compound 0.0316 µM
[29] = second compound 3.16 µM, first compound 0.1 µM
[30] = second compound 10 µM, first compound 0.000316 µM
[31] = second compound 10 µM, first compound 0.001 µM
[32] = second compound 10 µM, first compound 0.00316 µM
[33] = second compound 10 µM, first compound 0.01 µM
[34] = second compound 10 µM, first compound 0.0316 µM
[35] = second compound 10 µM, first compound 0.1 µM
[36] = second compound 0.1 µM, first compound 0.316 µM
[37] = second compound 0.1 µM, first compound 1 µM
[38] = second compound 0.316 µM, first compound 0.316 µM
[39] = second compound 0.316 µM, first compound 1 µM
[40] = second compound 1 µM, first compound 0.316 µM
[41] = second compound 1 µM, first compound 1 µM
[42] = second compound 3.16 µM, first compound 0.316 µM
[43] = second compound 3.16 µM, first compound 1 µM
[44] = second compound 10 µM, first compound 0.316 µM
[45] = second compound 10 µM, first compound 1 µM
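Further: drug exposure lasted 7 days starting on day 3 after seeding.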
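Wherever viability, T/C is given: luminescence viability as percent of DMSO vehicle wells = 100%.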

Row | SMILES | IC50 [1] [nM] | IC50 [2] [nM] | IC50 [3] [nM] | IC50 [4] [nM] | IC50 [5] [nM] | viability, T/C [8] [%] | viability, T/C [9] [%] | viability, T/C [10] [%] | viability, T/C [11] [%] | viability, T/C [14] [%] | viability, T/C [15] [%] | viability, T/C [16] [%] | viability, T/C [17] [%] | viability, T/C [20] [%] | viability, T/C [22] [%] | viability, T/C [23] [%] | viability, T/C [28] [%] | viability, T/C [29] [%] | viability, T/C [34] [%] | viability, T/C [35] [%] | other results
1 | O=C(C=Cn1cnc(-c2cc(C(F)(F)F)cc(C(F)(F)F)c2)n1)NNc1cnccn1 | – | – | – | – | – | – | – | – | – | – | – | – | – | – | – | – | – | – | – | – | viability, T/C (compound 0.00316 µM): 124% and 114%; viability, T/C (compound 0.01 µM): 125% and 86.4%; viability, T/C (compound 0.0316 µM): 52.5% and 44.8%; viability, T/C (compound 0.1 µM): 43.6% and 32.7%; viability, T/C (compound 0.316 µM): 38.7% and 27.1%; viability, T/C (compound 1 µM): 25% and 18.6%; IC50 (curve of compound): 37.5 nM and 29.4 nM
2 | CC(C)CC(NC(=O)C(Cc1ccccc1)NC(=O)c1cnccn1)B(O)O (configuration not stated) + NC1CCC(NC2CC2c2ccccc2)CC1 | 0.527 | 0.428 | 0.484 | 0.498 | 0.463 | 0.03 | 0.01 | 0.02 | 0.1 | 0.02 | 1.84 | 0.01 | 1.34 | 0.03 | 0.01 | 2.03 | 0.02 | 0.05 | 0.12 | 0.14 | viability, T/C [6]: 88%; viability, T/C [7]: 2.43%; viability, T/C [12]: 67.2%; viability, T/C [13]: 2.02%; viability, T/C [18]: 78.2%; viability, T/C [19]: 1.83%; viability, T/C [21]: 0.01%; viability, T/C [24]: 81.7%; viability, T/C [25]: 1.37%; viability, T/C [26]: 0.09%; viability, T/C [27]: 0.01%; viability, T/C [30]: 74.6%; viability, T/C [31]: 0.29%; viability, T/C [32]: 0.05%; viability, T/C [33]: 0.08%
3 | Nc1ncn(C2CC(O)C(CO)O2)c(=O)n1 (configuration not stated) + NC1CC1c1ccc(-c2cccc(O)c2)cc1 | > 1000 | > 1000 | > 1000 | > 1000 | > 1000 | 104 | 98.2 | 99.7 | 106 | 104 | 95 | 96.5 | 91.6 | 84.9 | 89.2 | 93.5 | 88 | 86.6 | 84.2 | 82 | viability, T/C [36]: 93.5%; viability, T/C [37]: 92.4%; viability, T/C [38]: 90.3%; viability, T/C [39]: 88.7%; viability, T/C [21]: 88.6%; viability, T/C [40]: 91.5%; viability, T/C [41]: 86.7%; viability, T/C [26]: 91.6%; viability, T/C [27]: 83.3%; viability, T/C [42]: 89.5%; viability, T/C [43]: 84.2%; viability, T/C [32]: 74.7%; viability, T/C [33]: 76.8%; viability, T/C [44]: 94.8%; viability, T/C [45]: 85.2%
4 | CC[C@@]1(O)C(=O)OCc2c1cc1n(c2=O)Cc2cc3c(CN(C)C)c(O)ccc3nc2-1 + NC1CC1c1ccc(-c2cccc(O)c2)cc1 | 8.59 | 7.94 | 7.85 | 6.85 | 6.35 | 98.1 | 42.7 | 21.8 | 19.4 | 92.8 | 39.1 | 22.8 | 19.4 | 84.8 | 22.8 | 18.8 | 20.9 | 18.6 | 21.5 | 16.3 | viability, T/C [6]: 97.8%; viability, T/C [7]: 102%; viability, T/C [12]: 98.9%; viability, T/C [13]: 102%; viability, T/C [18]: 90.5%; viability, T/C [19]: 94.6%; viability, T/C [21]: 40.5%; viability, T/C [24]: 85.7%; viability, T/C [25]: 90.3%; viability, T/C [26]: 87.2%; viability, T/C [27]: 31.8%; viability, T/C [30]: 81.5%; viability, T/C [31]: 97.3%; viability, T/C [32]: 82.2%; viability, T/C [33]: 28.9%
5 | O=C(c1cc(Cc2n[nH]c(=O)c3ccccc23)ccc1F)N1CCN(C(=O)C2CC2)CC1 + NC1CCC(NC2CC2c2ccccc2)CC1 | > 10000 | > 10000 | > 10000 | > 10000 | > 10000 | – | – | 89.1 | 97.5 | – | – | 98.7 | 90.8 | – | 94.2 | 87.3 | 89.5 | 89.8 | 83.3 | 81.9 | viability, T/C [36]: 83.5%; viability, T/C [37]: 83.2%; viability, T/C (second compound 0.1 µM, first compound 3.16 µM): 84.6%; viability, T/C (second compound 0.1 µM, first compound 10 µM): 72.3%; viability, T/C [38]: 83.4%; viability, T/C [39]: 84.6%; viability, T/C (second compound 0.316 µM, first compound 3.16 µM): 82.1%; viability, T/C (second compound 0.316 µM, first compound 10 µM): 73.8%; viability, T/C [40]: 87.7%; viability, T/C [41]: 93%; viability, T/C (second compound 1 µM, first compound 3.16 µM): 88.1%; viability, T/C (second compound 1 µM, first compound 10 µM): 79.5%; viability, T/C [42]: 92%; viability, T/C [43]: 87.7%; viability, T/C (second compound 3.16 µM, first compound 3.16 µM): 79.8%; viability, T/C (second compound 3.16 µM, first compound 10 µM): 76.1%; viability, T/C [44]: 86.4%; viability, T/C [45]: 82.6%; viability, T/C (second compound 10 µM, first compound 3.16 µM): 80.8%; viability, T/C (second compound 10 µM, first compound 10 µM): 72.7%
